From ChEMBL document CHEMBL1201862, “PubChem BioAssay data set” (2004)
Counter-ions that a name gives are not always drawn. Active and inactive are the calls of the source.

Experiments:
[1] = HEp-2 cell cytotoxicity, dose response, cytotoxicity control for RSV inhibitor project, HTS (AID 2410); type: functional; conditions: human respiratory syncytial virus
Vero [2] = test: cells; type: functional, cell-based; conditions: Chlorocebus sabaeus
cells [3] = test: cells
[4] = target: Voltage-dependent T-type calcium channel subunit alpha-1H (Homo sapiens, UniProt O95180); type: functional;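 further: channel activity triggered by adding a high calcium stimulation buffer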
[5] = target: T1, Heat shock factor protein 1 (Mus musculus, UniProt P38532); test: inhibition of MG132-induced HSE-luciferase signal, confirmation, cell-based, NIH3T3, luminescence, dose retest (AID 2382); type: functional;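 further: NIH3T3 fibroblasts with HSF1-driven luciferase reporter stressed by proteasome inhibitor MG132; luminescence from HSF1-driven luciferase expression after 8 hours of MG132 stress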
T1 sequence (P38532 whole entry): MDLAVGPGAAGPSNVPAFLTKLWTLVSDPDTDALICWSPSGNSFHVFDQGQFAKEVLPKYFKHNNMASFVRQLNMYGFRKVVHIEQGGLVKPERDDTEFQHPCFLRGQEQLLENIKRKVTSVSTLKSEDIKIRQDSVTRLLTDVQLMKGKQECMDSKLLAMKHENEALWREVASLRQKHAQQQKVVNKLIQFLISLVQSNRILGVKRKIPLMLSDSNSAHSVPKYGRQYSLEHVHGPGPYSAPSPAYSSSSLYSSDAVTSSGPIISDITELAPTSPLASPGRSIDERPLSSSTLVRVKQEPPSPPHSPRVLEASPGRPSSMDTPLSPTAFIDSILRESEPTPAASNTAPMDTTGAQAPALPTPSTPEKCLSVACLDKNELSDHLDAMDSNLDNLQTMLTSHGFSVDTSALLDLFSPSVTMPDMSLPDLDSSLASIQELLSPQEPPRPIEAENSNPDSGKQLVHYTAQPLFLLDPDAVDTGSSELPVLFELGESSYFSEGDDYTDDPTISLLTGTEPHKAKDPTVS

[6] = cytotoxicity in HEK-293T cells, dose response, cytotoxicity control for BCR NF-kB inhibitor project, luminescence, B-cell screen hits (AID 489021); type: functional, cell-based;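 further: HEK-293T cells carrying an NF-kB luciferase reporter; cells exposed to compound for about 14 hours before viability readout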
[7] = target: T2, Microphthalmia-associated transcription factor (Homo sapiens, UniProt O75030); test: TRPM1 promoter luciferase signal decrease, dose response, MITF inhibitor project, cell-based, SK-MEL-5, cherry-picked, set 3 (AID 493073); type: functional
T2 sequence (O75030 whole entry): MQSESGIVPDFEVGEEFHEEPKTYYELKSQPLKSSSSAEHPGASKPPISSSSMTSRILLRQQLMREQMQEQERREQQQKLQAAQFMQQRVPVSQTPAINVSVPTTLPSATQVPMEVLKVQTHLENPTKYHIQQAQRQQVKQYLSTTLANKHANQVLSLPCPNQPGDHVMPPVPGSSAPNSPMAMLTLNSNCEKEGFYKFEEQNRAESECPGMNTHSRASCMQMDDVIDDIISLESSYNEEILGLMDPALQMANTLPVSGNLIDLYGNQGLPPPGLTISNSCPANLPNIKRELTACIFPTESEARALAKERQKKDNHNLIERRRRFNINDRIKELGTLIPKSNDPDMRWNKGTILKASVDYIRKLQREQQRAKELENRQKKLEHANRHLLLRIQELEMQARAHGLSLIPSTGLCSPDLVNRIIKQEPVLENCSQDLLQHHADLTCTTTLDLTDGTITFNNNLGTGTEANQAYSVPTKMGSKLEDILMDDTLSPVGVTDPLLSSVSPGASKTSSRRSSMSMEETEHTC

[8] = target: Eukaryotic translation initiation factor 4E (Mus musculus, UniProt P63073); test: eIF4E–eIF4G protein interaction inhibitors, dose response, biochemical, TR-FRET (AID 855); type: functional;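 further: potency for disrupting eIF4E binding to eIF4GI seen as loss of FRET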
cells [9] = type: functional
[10] = THP-1 cell cytotoxicity, dose response, cytotoxicity control for non-replicating M. tuberculosis project (AID 489025); type: functional
[11] = target: T3, Short transient receptor potential channel 4 (Mus musculus, UniProt Q9QUQ5); test: mouse TRPC4 channel inhibitors, dose response, cell-based, HEK293 TRPC4/mu-opioid, Fluo-4 calcium (AID 434942); type: functional;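 further: potency of inhibitors blocking the TRPC4 calcium response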
T3 sequence (Q9QUQ5 whole entry): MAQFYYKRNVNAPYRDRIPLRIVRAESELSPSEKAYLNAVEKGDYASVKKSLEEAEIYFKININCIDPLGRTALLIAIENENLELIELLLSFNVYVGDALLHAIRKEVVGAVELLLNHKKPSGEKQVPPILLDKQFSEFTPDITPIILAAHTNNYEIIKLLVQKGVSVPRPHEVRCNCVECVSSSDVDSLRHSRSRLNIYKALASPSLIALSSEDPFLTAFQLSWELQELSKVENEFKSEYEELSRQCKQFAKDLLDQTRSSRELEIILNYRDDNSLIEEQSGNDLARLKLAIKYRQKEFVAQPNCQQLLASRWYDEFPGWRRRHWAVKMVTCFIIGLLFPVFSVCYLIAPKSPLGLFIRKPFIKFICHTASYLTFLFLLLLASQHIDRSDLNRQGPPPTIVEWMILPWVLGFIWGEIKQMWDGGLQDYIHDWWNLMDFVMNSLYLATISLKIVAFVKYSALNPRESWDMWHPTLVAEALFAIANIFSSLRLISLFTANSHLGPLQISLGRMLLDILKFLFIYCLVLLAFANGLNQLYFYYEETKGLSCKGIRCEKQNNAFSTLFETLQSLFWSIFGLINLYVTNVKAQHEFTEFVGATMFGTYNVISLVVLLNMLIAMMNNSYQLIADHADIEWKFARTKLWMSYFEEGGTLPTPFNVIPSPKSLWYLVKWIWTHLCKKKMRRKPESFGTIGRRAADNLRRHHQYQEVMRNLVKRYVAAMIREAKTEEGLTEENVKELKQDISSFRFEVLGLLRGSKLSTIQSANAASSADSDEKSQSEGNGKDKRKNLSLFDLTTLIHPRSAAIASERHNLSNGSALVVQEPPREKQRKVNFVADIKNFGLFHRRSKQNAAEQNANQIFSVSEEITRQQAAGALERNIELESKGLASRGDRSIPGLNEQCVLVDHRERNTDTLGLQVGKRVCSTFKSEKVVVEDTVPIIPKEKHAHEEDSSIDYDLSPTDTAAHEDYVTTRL

Vero [12] = test: cells; type: functional; conditions: Chlorocebus sabaeus
[13] = test system: Streptococcus sp. 'group A'; test: growth inhibition of control SK(-) GAS strain, dose response, counter-screen for streptokinase expression inhibitor project, luminescence, kanamycin, BacTiterGlo, confirmation (AID 1900); type: functional, organism-based
Streptokinase A = target: T4, Streptokinase A (Streptococcus pyogenes serotype M1, UniProt P10520); test: S. pyogenes streptokinase expression inhibitors, potency, dose response, plasminogen activation absorbance, OD405 (AID 1914); type: functional, Streptococcus pyogenes M1 GAS;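 further: secreted streptokinase activity via plasminogen activation per viability signal from cell pellet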
T4 sequence (P10520 whole entry): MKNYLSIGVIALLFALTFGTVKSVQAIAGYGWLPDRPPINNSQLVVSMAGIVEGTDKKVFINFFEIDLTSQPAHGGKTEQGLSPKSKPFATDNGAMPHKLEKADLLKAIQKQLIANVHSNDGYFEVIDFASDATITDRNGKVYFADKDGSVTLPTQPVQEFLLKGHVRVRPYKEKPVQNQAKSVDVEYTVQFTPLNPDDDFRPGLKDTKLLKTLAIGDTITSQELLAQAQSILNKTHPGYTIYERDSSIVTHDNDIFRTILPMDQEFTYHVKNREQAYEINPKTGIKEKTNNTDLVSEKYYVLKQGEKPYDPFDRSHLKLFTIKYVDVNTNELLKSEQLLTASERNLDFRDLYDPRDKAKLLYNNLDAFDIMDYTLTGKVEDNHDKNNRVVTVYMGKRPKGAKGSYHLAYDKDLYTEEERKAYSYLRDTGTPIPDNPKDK

Streptococcus = test: Group A Streptococcus viability loss, dose response, counter-screen for streptokinase expression inhibitor project, luminescence, BacTiterGlo (AID 1915); type: functional, organism-based;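 further: potency for reduction of bacterial viability or growth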
[14] = Luminescence Cell-Based Dose Retest to Confirm Inhibitors of Cancer Stem Cells. [Related pubchem assays (depositor defined):AID2717, AID2721]; type: functional; conditions: Homo sapiens
Protein RecA = target: T5, Protein RecA (Mycobacterium tuberculosis, UniProt P9WHJ3); test: Fluorescence Cell-Free Homogeneous Dose Retest to Identify Inhibitors of RecA-Intein Splicing Activity. [Related pubchem assays (depositor defined):AID2097, AID2223, AID489010, AID492950]; type: functional
T5 sequence (P9WHJ3 whole entry): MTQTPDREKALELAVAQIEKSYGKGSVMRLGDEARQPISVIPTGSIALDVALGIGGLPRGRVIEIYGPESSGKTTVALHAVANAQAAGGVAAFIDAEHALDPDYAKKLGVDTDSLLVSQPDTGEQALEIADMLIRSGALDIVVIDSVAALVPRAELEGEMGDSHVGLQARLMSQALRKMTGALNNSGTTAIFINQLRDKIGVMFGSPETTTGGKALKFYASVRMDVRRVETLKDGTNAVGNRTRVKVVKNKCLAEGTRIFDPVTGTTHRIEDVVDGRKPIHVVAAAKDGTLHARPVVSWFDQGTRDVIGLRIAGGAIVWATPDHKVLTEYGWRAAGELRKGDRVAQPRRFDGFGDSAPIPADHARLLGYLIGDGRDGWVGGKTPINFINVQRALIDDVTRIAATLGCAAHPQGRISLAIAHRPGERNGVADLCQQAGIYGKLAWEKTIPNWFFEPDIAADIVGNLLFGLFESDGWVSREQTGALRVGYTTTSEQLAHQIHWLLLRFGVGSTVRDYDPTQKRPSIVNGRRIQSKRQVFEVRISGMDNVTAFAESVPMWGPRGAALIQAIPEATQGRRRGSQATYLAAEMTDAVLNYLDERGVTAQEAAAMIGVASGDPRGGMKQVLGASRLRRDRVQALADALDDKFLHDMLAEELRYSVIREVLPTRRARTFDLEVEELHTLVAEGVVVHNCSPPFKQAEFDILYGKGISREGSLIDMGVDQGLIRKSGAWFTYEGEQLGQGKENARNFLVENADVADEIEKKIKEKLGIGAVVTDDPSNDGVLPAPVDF

[15] = target: T6, Replicative DNA helicase DnaB (Mycobacterium tuberculosis, UniProt P9WMR3); test: DnaB intein splicing inhibitors, dose response, biochemical, cell-free fluorescence (AID 449749); type: functional
T6 sequence (P9WMR3 whole entry): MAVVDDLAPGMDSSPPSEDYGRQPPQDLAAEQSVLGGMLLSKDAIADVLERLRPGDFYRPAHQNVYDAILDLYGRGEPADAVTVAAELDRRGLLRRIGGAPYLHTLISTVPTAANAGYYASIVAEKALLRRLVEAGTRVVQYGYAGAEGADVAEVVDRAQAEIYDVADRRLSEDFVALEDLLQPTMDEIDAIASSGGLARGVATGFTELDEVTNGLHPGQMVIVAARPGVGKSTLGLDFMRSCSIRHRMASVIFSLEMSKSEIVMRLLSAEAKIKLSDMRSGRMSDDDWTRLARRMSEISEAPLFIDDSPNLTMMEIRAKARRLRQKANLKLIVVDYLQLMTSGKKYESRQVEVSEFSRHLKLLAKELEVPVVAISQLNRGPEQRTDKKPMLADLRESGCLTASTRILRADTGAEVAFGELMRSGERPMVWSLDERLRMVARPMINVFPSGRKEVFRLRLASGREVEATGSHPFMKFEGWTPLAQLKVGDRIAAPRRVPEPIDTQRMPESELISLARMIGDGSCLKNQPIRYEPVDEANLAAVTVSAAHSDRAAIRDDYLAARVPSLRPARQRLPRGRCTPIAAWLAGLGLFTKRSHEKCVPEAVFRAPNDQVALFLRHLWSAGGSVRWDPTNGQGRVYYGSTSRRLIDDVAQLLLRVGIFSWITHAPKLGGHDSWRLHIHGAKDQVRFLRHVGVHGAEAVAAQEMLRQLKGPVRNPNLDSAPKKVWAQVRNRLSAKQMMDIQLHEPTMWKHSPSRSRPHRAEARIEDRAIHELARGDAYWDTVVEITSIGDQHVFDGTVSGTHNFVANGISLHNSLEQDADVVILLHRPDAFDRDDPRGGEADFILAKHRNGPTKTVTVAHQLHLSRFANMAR

Voltage-dependent T-type calcium channel subunit alpha-1H, sequence (O95180 whole entry): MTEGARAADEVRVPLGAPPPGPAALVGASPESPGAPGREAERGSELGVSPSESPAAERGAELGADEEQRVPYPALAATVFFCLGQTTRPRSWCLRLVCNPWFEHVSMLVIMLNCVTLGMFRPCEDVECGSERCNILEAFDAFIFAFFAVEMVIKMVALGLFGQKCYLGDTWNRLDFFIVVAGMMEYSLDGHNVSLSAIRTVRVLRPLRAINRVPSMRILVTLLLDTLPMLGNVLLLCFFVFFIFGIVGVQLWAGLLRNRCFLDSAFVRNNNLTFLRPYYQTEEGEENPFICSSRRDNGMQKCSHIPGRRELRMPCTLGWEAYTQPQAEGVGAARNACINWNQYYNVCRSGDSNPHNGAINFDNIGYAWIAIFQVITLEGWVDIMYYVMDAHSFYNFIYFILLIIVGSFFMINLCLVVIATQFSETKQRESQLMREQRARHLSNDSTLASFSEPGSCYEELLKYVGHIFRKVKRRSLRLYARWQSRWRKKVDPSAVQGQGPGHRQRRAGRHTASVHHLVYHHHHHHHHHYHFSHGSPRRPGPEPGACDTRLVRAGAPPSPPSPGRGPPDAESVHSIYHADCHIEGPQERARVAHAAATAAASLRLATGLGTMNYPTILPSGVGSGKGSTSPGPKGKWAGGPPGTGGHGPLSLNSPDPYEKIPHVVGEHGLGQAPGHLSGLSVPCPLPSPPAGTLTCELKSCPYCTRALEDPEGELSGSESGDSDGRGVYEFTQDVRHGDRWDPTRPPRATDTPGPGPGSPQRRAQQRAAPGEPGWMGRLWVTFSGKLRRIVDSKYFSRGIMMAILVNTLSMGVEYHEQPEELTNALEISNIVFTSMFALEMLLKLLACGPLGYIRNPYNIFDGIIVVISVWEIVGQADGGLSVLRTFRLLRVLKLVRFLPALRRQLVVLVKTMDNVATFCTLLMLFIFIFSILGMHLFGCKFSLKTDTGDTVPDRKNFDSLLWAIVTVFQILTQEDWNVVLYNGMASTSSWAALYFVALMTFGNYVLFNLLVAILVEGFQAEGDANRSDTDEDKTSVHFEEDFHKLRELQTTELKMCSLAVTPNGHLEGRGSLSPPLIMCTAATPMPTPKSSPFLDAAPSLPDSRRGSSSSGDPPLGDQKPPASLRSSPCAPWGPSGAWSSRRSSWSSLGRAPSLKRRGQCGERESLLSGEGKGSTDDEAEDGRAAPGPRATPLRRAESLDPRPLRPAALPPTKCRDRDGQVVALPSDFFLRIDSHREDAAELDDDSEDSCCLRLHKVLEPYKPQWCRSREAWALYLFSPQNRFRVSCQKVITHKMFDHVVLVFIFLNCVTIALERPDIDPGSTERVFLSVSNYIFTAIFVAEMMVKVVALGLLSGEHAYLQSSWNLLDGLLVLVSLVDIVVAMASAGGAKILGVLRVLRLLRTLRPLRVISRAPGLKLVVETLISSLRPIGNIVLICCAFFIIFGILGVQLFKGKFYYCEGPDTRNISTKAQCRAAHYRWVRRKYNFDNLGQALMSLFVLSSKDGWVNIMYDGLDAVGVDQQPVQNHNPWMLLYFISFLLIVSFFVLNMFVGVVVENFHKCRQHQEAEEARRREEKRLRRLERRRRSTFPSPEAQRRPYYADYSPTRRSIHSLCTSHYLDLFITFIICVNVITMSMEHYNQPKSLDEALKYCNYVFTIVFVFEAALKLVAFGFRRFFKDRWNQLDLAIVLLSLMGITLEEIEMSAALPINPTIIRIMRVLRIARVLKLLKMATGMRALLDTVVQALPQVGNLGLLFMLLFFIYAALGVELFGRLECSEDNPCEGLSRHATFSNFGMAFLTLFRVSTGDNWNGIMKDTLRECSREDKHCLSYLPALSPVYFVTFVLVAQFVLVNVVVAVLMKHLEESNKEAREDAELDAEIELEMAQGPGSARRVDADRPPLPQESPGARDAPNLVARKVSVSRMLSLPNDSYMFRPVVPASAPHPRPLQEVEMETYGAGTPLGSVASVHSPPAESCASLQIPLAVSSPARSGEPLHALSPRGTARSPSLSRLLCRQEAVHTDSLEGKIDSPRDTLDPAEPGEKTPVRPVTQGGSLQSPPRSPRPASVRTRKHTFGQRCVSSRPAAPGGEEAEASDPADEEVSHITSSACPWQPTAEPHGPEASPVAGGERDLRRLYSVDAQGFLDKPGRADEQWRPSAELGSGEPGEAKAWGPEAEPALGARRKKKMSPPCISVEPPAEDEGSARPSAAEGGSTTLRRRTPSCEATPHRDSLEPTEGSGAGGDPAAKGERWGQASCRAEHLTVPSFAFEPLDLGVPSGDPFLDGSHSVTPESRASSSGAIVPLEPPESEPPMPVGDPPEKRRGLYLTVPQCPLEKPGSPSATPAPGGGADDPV
Eukaryotic translation initiation factor 4E, sequence (P63073 whole entry): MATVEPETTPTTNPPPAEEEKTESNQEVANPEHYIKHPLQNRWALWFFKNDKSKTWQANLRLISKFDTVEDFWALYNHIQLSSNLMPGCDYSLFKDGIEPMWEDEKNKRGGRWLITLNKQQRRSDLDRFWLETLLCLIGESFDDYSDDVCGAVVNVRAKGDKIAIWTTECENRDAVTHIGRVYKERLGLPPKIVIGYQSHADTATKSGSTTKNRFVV

CCOc1ccccc1CNC(=O)c1cc2oc3ccccc3c2n1C
CC50 [1]: 18.7 µM (active)
IC50 (Vero [2]): 4.91 µM (active)
IC50 (cells [3]): 9.25 µM (active)

O=C(Nc1ccc(F)cc1)c1cc(S(=O)(=O)Nc2ccc(F)cc2)cs1
EC50 [4]: 2.88 µM (active)

C=CCOc1ccc(/C=C2\SC(=S)N(CCC(=O)O)C2=O)cc1
EC50 [5]: 5.69 µM (active)
IC50 [6]: > 80 µM (inactive)
AC50 [7]: 0.337 µM (active)

O=C1NC(=O)C(CCc2ccncc2)(CCc2ccncc2)C(=O)N1Cc1ccccc1
EC50 [5]: > 195 µM (not active)
IC50 [8]: 50 µM (inactive)

COc1ccc(/C=C2\SC(=O)N(CCCC(=O)Nc3ccc(C(=O)O)cc3)C2=O)cc1OC
IC50 [6]: > 80 µM (inactive)

CCCCOc1cc(C(=O)NCCN(CC)CC)c2ccccc2n1 [DIBUCAINE HYDROCHLORIDE]
IC50 [8]: 50 µM (inactive)

C#CCSc1nnc(-c2ccc(C)cc2)o1
IC50 (cells [9]): 26.4 µM (active)
CC50 [10]: > 40 µM (active)

CCN1C(=O)c2cccc3c(S(=O)(=O)Nc4ccccn4)ccc1c23
IC50 [6]: > 80 µM (inactive)

COc1cc(CNC2CCCC2)c(Br)cc1OCc1ccccc1
EC50 [11]: 0.237 µM (active)

O=C(CSc1nnc(Cc2cccs2)n1-c1ccccc1)NCc1ccc2c(c1)OCO2
EC50 [4]: 8.23 µM (active)

CN(C)CC/C=C1\c2cc(Cl)ccc2Sc2cc(F)c(F)cc21
IC50 (cells [9]): 18.2 µM (active)
CC50 (Vero [12]): > 25 µM (active)
CC50 [10]: 38.8 µM (active)

CSc1cccc(NC(=O)CSc2ccccc2)c1
EC50 [4]: 9.9 µM (active)

Cc1cc(-c2csc3ncnc(N4CCN(C)CC4)c23)cc(C)c1C
EC50 [11]: 1.19 µM (active)

COc1ccccc1N1CCN(CC(C)N(C(=O)C2CCCCC2)c2ccccn2)CC1 (stereo not drawn)
EC50 [11]: 0.335 µM (active)

O=C(O)c1ccc(CSc2nc(-c3ccc(Cl)cc3)cc(C(F)(F)F)n2)cc1
EC50 [13]: 4.41 µM (active)
EC50 (Streptokinase A): > 150 µM (not active)
EC50 (Streptococcus): 11.7 µM (active)
AC50 [14]: 5.76 µM (active)
EC50 [11]: 5.96 µM (active)

CC(=O)NC1=C(Nc2ccc(N(C)C)cc2)C(=O)c2ccccc2C1=O
EC50 (Protein RecA): 46.6 µM (active)
CC50 [1]: 15.3 µM (active)
IC50 (Vero [2]): 24.7 µM (active)
CC50 (Vero [12]): > 25 µM (active)
IC50 (cells [3]): 17.5 µM (active)
AC50 [15]: 34.5 µM (active)
